Source: patent US8586768B2, “Design, synthesis and functional characterization of rottlerin analogs” (priority 2009, dated 2013)

Tests used:
N27 cells = conditions: for toxicity of the analog at higher doses: 30 μM; for neuroprotection compared with rottlerin: caspase-3 activity and cytotoxic cell death; for blockage of MPP+-induced cytotoxicity: co-treated with 0.3, 1 and 3 μM
Protocol: (§1) At the end of the treatment, cytotoxicity was measured using the Sytox cell death assay in a 96-well fluorescence microplate reader.
A second generation of rottlerin analogs was further utilized for neuroprotection studies, as shown as PK201-203 in FIG. 2.
as §1
The analogs were tested in an N27 dopaminergic cell model for their neuroprotective properties. […] At the end of the treatment, cytotoxicity was measured using the Sytox cell death assay in a 96-well fluorescence microplate reader.
(§2) Rat mesencephalic dopaminergic clonal cells (N27) were used and maintained in RPMI 1640 complete medium supplemented with 10% Fetal Bovine Serum, 1% […] and 1% Penicillin/Streptomycin in a 37° C. incubator with 5% CO2. After 4-6 days in culture, the cells were used for the experiments.
(§3) N27 cells were exposed to MPP^+ for 24 hr in the presence or absence of PK analogs in the dose range of 1-30 μM.

[1] = tested on: caspase-3 activity in N27 cells; test: MPP+-induced caspase-3 activity assay in N27 cells; format: cell-based, rat; conditions: for inhibition of MPP+-induced caspase-3 activity: MPP+ 24 hr, dose range 1-30 μM; for blockage of MPP+-induced caspase-3 activity: co-treated with 0.3, 1, 3 and 10 μM
Protocol: To determine whether PK analogs are neuroprotective against MPP+-induced increases in caspase-3 and DNA fragmentation, their effects on MPP+-induced increases in caspase-3 activity and DNA fragmentation, markers of apoptotic cell death, were examined.
The second generation PK analogs were further tested to determine whether the analogs are neuroprotective against MPP+-induced apoptotic cell death. The effects on MPP+-induced increases in caspase-3 enzymatic activity were analyzed, a marker of apoptotic cell death. […] At the end of the treatment, cytotoxicity was measured using the caspase-3 assay in a 96-well fluorescence microplate reader.
The third generation PK analogs were further tested to determine whether the analogs are neuroprotective against MPP+-induced apoptotic cell death. The effects on MPP+-induced increases in caspase-3 enzymatic activity were examined, a marker of apoptotic cell death. N27 cells were exposed to 300 μM MPP+ for 24 hr in the presence or absence of three different PK compounds in the dose range of 0.3-10 μM. At the end of the treatment, cytotoxicity was measured using the caspase-3 assay in a 96-well fluorescence microplate reader.
as §2, §3

PKCδ = PKCδ (Homo sapiens, UniProt Q05655); test: In vitro 32P phosphorylation kinase assay with histone substrate; format: biochemical; conditions: 0.3-10 μM, pure recombinant PKCδ protein
Protocol: Since PK analogs are directed against PKCδ, it was first determined whether the analogs would inhibit PKCδ enzyme activity in kinase assays. The ability of lead PK analogs to inhibit purified human recombinant PKCδ enzyme activity by 32P phosphorylation kinase assay with histone as the substrate was measured. The in vitro kinase assays were performed with human recombinant PKCδ in the presence or absence of 0.3-10 μM lead PK analogs in the presence histone substrate, [^32P]-ATP and phospholipids. The extent of histone phosphorylation was determined after separation in SDS-PAGE and by phosphoimaging. IC50 was obtained using sigmoidal dose-response curve and non-linear regressional analysis using Graphpad Prism software.
In vitro kinase assays were performed with human recombinant PKCδ in the presence or absence of 0.3-10 μM lead PK analogs in the presence histone substrate, [^32P]-ATP and phospholipids. The extent of histone phosphorylation was determined after separation in SDS-PAGE and by phosphoimaging.

[2] = Activity of simple rottlerin analogs compared with rottlerin (test not named)
Protocol: Design and Synthesis of Novel Rottlerin Analogs. Since Rottlerin has proven to be a difficult target to make synthetically, analogs have been developed and tested in an attempt to localize the region of activity and improve that activity. Initially, simple analogs of Rottlerin itself, obtained from CalBioChem (La Jolla, Calif., Cat #557370), were prepared and analyzed. Two compounds gave important results, one representing a simplified methylene linkage present in the parent compound (PK103), and the other (PK203) came from a simple bromination of natural Rottlerin.

PKCδ, sequence (Q05655 whole entry): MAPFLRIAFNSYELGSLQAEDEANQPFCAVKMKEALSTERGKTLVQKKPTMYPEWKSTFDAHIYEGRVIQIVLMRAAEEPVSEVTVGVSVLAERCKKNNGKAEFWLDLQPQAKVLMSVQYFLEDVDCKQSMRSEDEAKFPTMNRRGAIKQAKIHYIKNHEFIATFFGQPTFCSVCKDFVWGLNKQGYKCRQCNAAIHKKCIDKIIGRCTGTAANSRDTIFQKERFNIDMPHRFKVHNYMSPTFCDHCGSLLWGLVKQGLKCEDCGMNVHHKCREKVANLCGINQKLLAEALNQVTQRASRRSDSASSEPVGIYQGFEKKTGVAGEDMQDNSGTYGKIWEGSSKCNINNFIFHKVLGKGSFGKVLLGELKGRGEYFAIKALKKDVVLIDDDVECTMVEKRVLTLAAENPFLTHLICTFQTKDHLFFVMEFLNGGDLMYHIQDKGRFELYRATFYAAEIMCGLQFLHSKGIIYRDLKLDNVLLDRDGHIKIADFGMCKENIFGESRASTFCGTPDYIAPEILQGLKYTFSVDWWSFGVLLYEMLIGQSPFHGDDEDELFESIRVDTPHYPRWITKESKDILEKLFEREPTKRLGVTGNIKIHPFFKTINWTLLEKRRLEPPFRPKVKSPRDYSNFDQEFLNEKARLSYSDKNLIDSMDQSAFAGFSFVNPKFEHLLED

Structure (SMILES) | toxicity of the analog at higher doses (N27 cells) | neuroprotection compared with rottlerin (N27 cells; MPP+ 24 hr) | inhibition of MPP+-induced cytotoxic cell death (N27 cells; MPP+ 24 hr, dose range 1-30 μM) | inhibition of MPP+-induced caspase-3 activity [1] | inhibition of PKCδ kinase activity (PKCδ) | blockage of MPP+-induced cytotoxicity (N27 cells; 300 μM MPP+ 24 hr) | blockage of MPP+-induced caspase-3 activity ([1]; 300 μM MPP+ 24 hr) | activity compared with Rottlerin [2] | relative potency against MPP+-induced cytotoxic cell death within the generation (N27 cells; 300 μM MPP+ 24 hr) | relative protection against MPP+-induced caspase-3 activity within the generation ([1]; 300 μM MPP+ 24 hr, 0.3-10 μM)
COc1cc(OC)c(C(=O)/C=C/c2ccccc2)c2c1C=CC(C)(C)O2 [PK111] | toxic | better neuroprotection than the parent compound rottlerin | almost completely inhibited | almost completely inhibited | inhibited | – | – | – | – | –
COc1cc2c(c3c1C=CC(C)(C)O3)C(=O)CC(c1ccccc1)O2 (stereo not drawn) [PK112] | toxic | better neuroprotection than the parent compound rottlerin | – | almost completely inhibited | inhibited | – | – | – | – | –
CC(=O)c1c(O)c(C)c(O)c(Cc2c(O)c(C(=O)/C=C/c3ccccc3)c3c(c2O)C(Br)C(Br)C(C)(C)O3)c1O (stereo not drawn) [PK203] | – | – | – | – | – | significant blockage | dose-dependent blockage | less activity than Rottlerin | – | –
CC(=O)c1c(O)c(C)c(O)c(Cc2c(O)c3c(c(C(=O)/C=C/c4ccccc4)c2O)OC(C)(C)CC3)c1O [PK201] | – | – | – | – | – | significant blockage | dose-dependent blockage | – | – | –
CC(=O)c1c(O)cc(O)cc1O [PK303, acytyl phloroglucinol] | – | – | – | – | – | significant blockage | significant blockage | – | more potent inhibitors than PK301 | more effectively protect
